SMILES strings stand for the structures. Inconclusive results are not listed. The source made the active and inactive calls. No rule for the calls is given here.

The term AC50 denotes the concentration at which the activity in the assay is half-maximal.

Tested on in the first assay: not listed separately
Nature of the assay: HEK293 cell cytotoxicity, dose response, cytotoxicity control, plate reader, dry powder, set 2 (AID 720715). Particulars: HEK293 cytotoxicity, plate reader; at 12 µM (top of the series).
For `O=C(c1nnsc1S(=O)c1ccc(Cl)cc1)N1CCOCC1` (stereo unspecified), the activity change, negative = cytotoxicity was 0.296% (inactive).

Still in this assay, the particulars now being: HEK293 cytotoxicity, plate reader; at 26 µM (top of the series).
Take `O=c1c2ccccc2nc2n1C(CSCc1ccc(Cl)cc1Cl)CS2` (stereo unspecified): the activity change, negative = cytotoxicity is -9.98% (inactive).
Still for that read-out and setting: for `Fc1ccc(-n2nnnc2-c2cnc(-c3cccs3)nc2C(F)(F)F)cc1` the value was -31.8% (inactive).
On the same count and under the same terms, for `CC(=O)Nc1cccc(NC(=O)CSc2ncc(-c3ccc(Cl)cc3)n2Cc2ccco2)c1` the value was -4.47% (inactive); for `Cc1cc2c(cc(C(=O)N3CCC(C(=O)NC4CCCC4)CC3)n2Cc2c(F)cccc2Cl)o1`, -24.5% (inactive); for `COc1ccccc1N1CCN(c2ncc(C(=O)N3CCN(c4cccc(Cl)c4)CC3)c3ccccc23)CC1`, -7.71% (inactive).
The same measure, in the same setting: for `CCOC(=O)C1(Cc2ccc(Cl)cc2)CCN(C(C)Cc2ccc(O)c(OC)c2)CC1` (stereo unspecified) the value was -31.7% (inactive); for `Nc1nonc1C(=O)NCCNCc1cc(Br)ccc1OCc1ccc(F)cc1`, -59.1% (inactive).
For `CC(C)[C@H](NC(=O)OC(C)(C)C)c1nnc(S(=O)(=O)Cc2c(F)cccc2Cl)o1`, the activity change, negative = cytotoxicity was -61.3% (inactive).
On the same count and under the same terms, then `COc1ccc(NC(=O)c2nc(S(=O)(=O)Cc3cccc(C)c3)ncc2Cl)c(OC)c1`, with -19.6% (inactive).
The same measure, in the same setting: then `CC(=O)N1CCN(C(=O)CCc2cc(C(C)(C)C)c(O)c(C(C)(C)C)c2)CC1`, with -13.7% (inactive); and `Cc1cc(N2CCCC2=O)cc(C)c1S(=O)(=O)NCCOc1ccc(C(C)(C)C)cc1`, with 57.1% (inactive); and `Cc1ccc2cc(CN(CC3CCCO3)C(=O)NC3CCCCC3)c(=O)[nH]c2c1C` (stereo unspecified), with 5.24% (inactive).
On the same count and under the same terms, then `CCCOc1ccccc1C1CC(=O)Nc2cc3c(cc21)OCO3` (stereo unspecified), with -19.2% (inactive); and `CCCc1nnc(NC(=O)c2nc(S(=O)(=O)Cc3ccc(C)cc3)ncc2Cl)s1`, with -2.77% (inactive).
As to `COc1ccc(NS(=O)(=O)c2ccc(C(=O)N3CCCCCC3)cc2)cc1`, the activity change, negative = cytotoxicity is -33.4% (inactive).
Same read-out and setting: for `COc1cc2ncnc(N[C@H](C)c3ccccc3)c2cc1OC` the value was 70.1% (inactive).
Same read-out and setting: then `CN(CC(=O)Nc1cccc(S(=O)(=O)N2CCOCC2)c1)CC(=O)Nc1ccc(Cl)c(C(F)(F)F)c1`, with -50% (inactive).

In the next assay the test system is HEK293 cytotoxicity, plate reader. Described as above.
Conditions: not given
Turning to `COc1ccc(Nc2nc(N3CCCCC3)c3ccccc3n2)cc1`, the AC50 was 23.8 µM.
Still for that read-out and setting: for `CCOC(=O)c1ccc(NC(=O)Cn2ncc(Cl)c(Cl)c2=O)cc1` the value was 15.1 µM; for `COc1cc(CN2CCc3ccccc3C2)ccc1O`, 14.7 µM; for `O=C1CSc2ccc(C(=O)Nc3cccc(S(=O)(=O)Nc4ccc(Br)cc4)c3)cc2N1`, 19.3 µM.
On the same count and under the same terms, for `CN(C(=O)COc1ccccc1C(=O)NCCOc1ccccc1)c1ccccc1` the value was 18.1 µM; for `CCOC(=O)C1CCN(C(=O)c2ccc(OCC(=O)Nc3cccc(C(F)(F)F)c3)c(OC)c2)CC1`, 5.01 µM.
Still for that read-out and setting: then `CN(C)c1nc(-c2ccccn2)nnc1-c1ccccc1`, with 5.55 µM; and `CC(C)(C)NC(=O)CSc1nc2ccc(NC(=O)CSc3nnnn3Cc3ccccc3)cc2s1`, with 15.9 µM.

For the origin of these results see PubChem BioAssay AID720715 (Broad Institute, 2013).
